The nature of data set [1]: Inhibition of rat MDD.
The species named for data set [2] is Rattus norvegicus. The experiment in a line: Activity of wild type MDD in rat liver.
Substrate in data set [3]: Nc1ncnc2c1ncn2[C@@H]1O[C@H](COP(=O)(O)OP(=O)(O)OP(=O)(O)O)[C@@H](O)[C@H]1O
The experiment in a line: (§1) Activity of MDD K27A mutant. The settings on record: Rattus norvegicus.

Substrate in data set [4]: C[C@@](O)(CCOP(=O)(O)OP(=O)(O)O)CC(=O)O
The description is as §1. The settings on record: Rattus norvegicus.

Substrate in data set [5]: Nc1ncnc2c1ncn2[C@@H]1O[C@H](COP(=O)(O)OP(=O)(O)OP(=O)(O)O)[C@@H](O)[C@H]1O
The experiment in a line: (§2) Activity of MDD R154A mutant. The settings on record: Rattus norvegicus.

Substrate in data set [6]: C[C@@](O)(CCOP(=O)(O)OP(=O)(O)O)CC(=O)O
The data set is described as §2. The settings on record: Rattus norvegicus.

The term IC50 denotes the concentration needed to halve the response being measured. The low end stands for greater potency, the high end for weaker potency. Usually Km stands for the concentration of substrate that gives half-maximal velocity. What is called Vmax is the rate approached at saturating substrate.

Changes are numbered by the printed parent chain. In names and notes the source's numbering stands.

`CCCC(C)(O)CCOP(=O)(O)OP(=O)(O)O` (stereo unspecified) gave a half-maximal inhibitory concentration (IC50) in data set [1] of 120 µM. Molecule `CC(O)(CCOP(=O)(O)OP(=O)(O)O)Cc1ccccc1` (stereo unspecified) showed an IC50 in data set [1] of 140 µM. With `CC(O)(CCF)CCOP(=O)(O)OP(=O)(O)O` (stereo unspecified), in data set [1], the midpoint of inhibition, the IC50, lay at 50 µM. Still for that read-out and setting: for `CCC(O)(CCOP(=O)(O)OP(=O)(O)O)C(F)C(=O)O` (stereo unspecified) the value was 20 µM. With `C[C@@](O)(CCOP(=O)(O)OP(=O)(O)O)CC(=O)O`, in data set [2], the Michaelis-Menten constant (Km) was 36 µM and the Vmax worked out at 6.6 µmol/min/mg.

Turning to `Nc1ncnc2c1ncn2[C@@H]1O[C@H](COP(=O)(O)OP(=O)(O)OP(=O)(O)O)[C@@H](O)[C@H]1O`, the Michaelis constant (Km) in data set [2] was found to be 530 µM. For the molecule `CCC(C)(O)CCOP(=O)(O)OP(=O)(O)O` (stereo unspecified), half-maximal inhibition in data set [1] (IC50) was put at 80 µM. In the case of `CC(C)(O)CCOP(=O)(O)OP(=O)(O)O`, the half-maximal inhibitory concentration (IC50) in data set [1] was determined as 60 µM. As for `CC(O)(CCOP(=O)(O)OP(=O)(O)O)C(F)(F)C(=O)O` (stereo unspecified), the IC50 in data set [1] worked out at 7.5 µM.

B1: Diphosphomevalonate decarboxylase (Rattus norvegicus), Q62967 K27A (protein)
chain: MASEKPQDLMVTCTAPVNIAVIKYWGARDEALILPINPSLSVTLHQDQLKTTTTAAISKDFTEDRIWLNGREEDVGQPRLQACLREIRRLARKRRSTGDGDALPLSLGYKVHVASVNNFPTAAGLASSAAGYACLAYTLARVYGVEGDLSEVARRGSGSACRSLYGGFVEWQMGEQADGKDSIARQIAPEWHWPQLRVLILVVSAEKKPTGSTVGMQTSVATSTLLKFRAESIVPERMKEMTRCIQEQDFQAFAQLTMKDSNQFHATCLDTFPPISYLNDTSRRIIQLVHRFNAHHGQTKVAYTFDAGPNAVIFTLEDTVAEFVAAVRHSFPPAANGDKFLKGLQVAPVLLSDELKTSLATEPSPGGVQYIIATQVGPGPQVLDDPHHHLLGPDGLPQRDL
As to B1, the Km in data set [3] was found to be 1870 µM; in data set [4], 750 µM. Besides, the maximal velocity (Vmax) in data set [4] came to 0.14 µmol/min/mg.

B2: Diphosphomevalonate decarboxylase (Rattus norvegicus), Q62967 R154A (protein)
chain: B1 chain with A27K, R154A
As for B2, the Km in data set [5] amounted to 1400 µM. In addition, in data set [6], the Michaelis constant (Km) was determined as 920 µM and the maximum rate (Vmax) amounted to 0.34 µmol/min/mg.

Source of the values: ChEMBL document CHEMBL1137532, “Mutation and inhibition studies of mevalonate 5-diphosphate decarboxylase” (Bioorg Med Chem Lett, 2007).
